Reference: patent US20230279025A1, “KRAS G12D INHIBITORS” (Mirati Therapeutics, Inc., priority 2020, published 2023)

Each compound was assayed against KRas G12D (Homo sapiens (Human), UniProt P01116, G12D) (assay: KRas G12D Binding Assay (TR-FRET displacement of Cy5 labelled tracer)). Details: GDP-loaded KRAS G12D (amino acids 1:169), 60 minute incubation at 22° C.
KRas G12D, sequence (P01116 other isoform, or with tags, fused parts or gaps G12D): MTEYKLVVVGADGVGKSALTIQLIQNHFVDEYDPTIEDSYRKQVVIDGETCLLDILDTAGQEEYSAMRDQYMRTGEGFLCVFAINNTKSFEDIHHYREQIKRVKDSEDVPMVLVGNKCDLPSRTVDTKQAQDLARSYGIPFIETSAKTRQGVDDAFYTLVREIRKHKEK
Method: After a 60 minute incubation at 22° C., the reaction was measured using a PerkinElmer EnVision multimode plate reader via TR-FRET dual wavelength detection, and the percent of control (POC) calculated using a ratiometric emission factor. […] The POC values were fit to a 4-parameter logistic curve and the IC50 value was determined as the concentration where the curve crosses 50 POC.
ND stands for “not determined.”
`Oc1cc(-c2ncc3c(N4C[C@H]5CC[C@@H](C4)N5)ncnc3c2F)c2ccccc2c1` [Example 181, 4-(4-((1R,5S)-3,8-diazabicyclo[3.2.1]octan-3-yl)-8-fluoropyrido[4,3-d]pyrimidin-7-yl)naphthalen-2-ol] was tested, and the IC50 was 572 nM.
In the case of `Nc1nc(N2CC3CCC(C2)N3)c2cnc(-c3cc(O)cc4ccccc34)c(F)c2n1` [Example 182, 4-[2-amino-4-(3,8-diazabicyclo[3.2.1]octan-3-yl)-8-fluoro-pyrido[4,3-d]pyrimidin-7-yl]naphthalen-2-ol], the IC50 is reported as 269 nM.
`CNc1nc(N2CC3CCC(C2)N3)c2cnc(-c3cc(O)cc4ccccc34)c(F)c2n1` [Example 183, 4-[4-(3,8-diazabicyclo[3.2.1]octan-3-yl)-8-fluoro-2-(methylamino)pyrido[4,3-d]pyrimidin-7-yl]naphthalen-2-ol] was tested, and the IC50 was 393 nM.
Work on `CN(C)c1nc(N2CC3CCC(C2)N3)c2cnc(-c3cc(O)cc4ccccc34)c(F)c2n1` [Example 184, 4-[4-(3,8-diazabicyclo[3.2.1]octan-3-yl)-2-(dimethylamino)-8-fluoro-pyrido[4,3-d]pyrimidin-7-yl]naphthalen-2-ol] yielded an IC50 of 1990 nM.
Compound `C#Cc1cccc2cc(O)cc(-c3ncc4c(N5C[C@H]6CC[C@@H](C5)N6)nc(OCC56CCCN5CCC6)nc4c3F)c12` [Example 185, 4-(4-((1R,5S)-3,8-diazabicyclo[3.2.1]octan-3-yl)-8-fluoro-2-((hexahydro-1H-pyrrolizin-7a-yl)methoxy)pyrido[4,3-d]pyrimidin-7-yl)-5-ethynylnaphthalen-2-ol] has an IC50 of 0.3 nM.
`Fc1c(-c2cccc3ccccc23)ncc2c(N3C[C@H]4CC[C@@H](C3)N4)nc(OCC34CCCN3CCC4)nc12` [Example 186, 4-((1R,5S)-3,8-diazabicyclo[3.2.1]octan-3-yl)-8-fluoro-7-(naphthalen-1-yl)-2-((tetrahydro-1H-pyrrolizin-7a(5H)-yl)methoxy)pyrido[4,3-d]pyrimidine] was tested, and the IC50 was 29.2 nM.
For `CCc1cccc2cccc(-c3ncc4c(N5C[C@H]6CC[C@@H](C5)N6)nc(OCC56CCCN5CCC6)nc4c3F)c12` [Example 187, 4-((1R,5S)-3,8-diazabicyclo[3.2.1]octan-3-yl)-7-(8-ethylnaphthalen-1-yl)-8-fluoro-2-((tetrahydro-1H-pyrrolizin-7a(5H)-yl)methoxy)pyrido[4,3-d]pyrimidine], the IC50 was 1.7 nM.
`C#Cc1cccc2cccc(-c3ncc4c(N5CC6CCC(C5)N6)ncnc4c3F)c12` [Example 188, 4-(3,8-diazabicyclo[3.2.1]octan-3-yl)-7-(8-ethynyl-1-naphthyl)-8-fluoro-pyrido[4,3-d]pyrimidine] showed an IC50 of 1920 nM.
In the case of `C#Cc1c(F)ccc2cccc(-c3ncc4c(N5C[C@H]6CC[C@@H](C5)N6)nc(OCC56CCCN5CCC6)nc4c3F)c12` [Example 189, 4-((1R,5S)-3,8-diazabicyclo[3.2.1]octan-3-yl)-7-(8-ethynyl-7-fluoronaphthalen-1-yl)-8-fluoro-2-((tetrahydro-1H-pyrrolizin-7a(5H)-yl)methoxy)pyrido[4,3-d]pyrimidine], the IC50 is reported as 0.5 nM.
Compound `CN1CCC[C@H]1COc1nc(N2C[C@H]3CC[C@@H](C2)N3)c2cnc(-c3cc(O)cc4ccccc34)c(Cl)c2n1` [Example 191, 4-(4-((1R,5S)-3,8-diazabicyclo[3.2.1]octan-3-yl)-8-chloro-2-(((S)-1-methylpyrrolidin-2-yl)methoxy)pyrido[4,3-d]pyrimidin-7-yl)naphthalen-2-ol] has an IC50 of 69.1 nM.
For `CN1CCC[C@H]1COc1nc(N2CC3CCC(C2)N3)c2cnc(-c3cccc4cccc(C#N)c34)c(F)c2n1` [Example 192], the IC50 was 225 nM.
For `OCC#Cc1cccc2cccc(-c3ncc4c(N5C[C@H]6CC[C@@H](C5)N6)nc(OCC56CCCN5CCC6)nc4c3F)c12` [Example 193, 3-(8-(4-((1R,5S)-3,8-diazabicyclo[3.2.1]octan-3-yl)-8-fluoro-2-((tetrahydro-1H-pyrrolizin-7a(5H)-yl)methoxy)pyrido[4,3-d]pyrimidin-7-yl)naphthalen-1-yl)prop-2-yn-1-ol], the IC50 was 12.5 nM.
